According to patent US6310091A, “Fungicidal saponin, CAY-1, and isolation thereof from Capsium species fruit” (The United States of America as represented by the …, priority 2000, dated 2001):
Values joined by “and” are separate entries in the source; they are usually repeats but may differ in a detail not shown here. Equal values may be shown once. Read-outs that look alike come from different tables or passages of the source.

Experiments:
Assay type in all cases: cell-based
[1] = test system: Aspergillus fumigatus; assay: Fungicidal bioassay on nongerminated and germinating conidia of A. fumigatus; conditions: nongerminated, RPMI-1640
Method: (§1) 1. Filamentous fungi. Filamentous fungi used in bioassays included Aspergillus flavus, A. fumigatus, A. niger, A. parasiticus and Fusarium oxysporum. The fungicidal properties of CAY-1 for the nongerminated and germinating conidia of these fungi were determined separately as described by De Lucca et al. [Med. Mycol., 36:291-298 (1998)] and De Lucca et al. [Antimicrob. Agents Chemother. 43:371-373 (1999)]. […] Two separate experiments were conducted in each medium (n=8 per medium).
(§2) A suspension of the aforementioned fungi were prepared separately in the appropriate medium. Conidia (10^4 conidia/ml) were used immediately for the nongerminated conidial assays while conidia (10^5 conidia/ml) were incubated for 7.5 hours at 30° C. to obtain germinating conidia. Serial dilutions of CAY-1 were prepared in the appropriate medium (totaling 225 μl) to which was added 25 μl of the conidial suspensions. The control consisted of 225 μl of medium and 25 μl of the conidial suspension. After mixing, the samples were incubated for 30 min (30° C.). Samples were then spread on potato dextrose agar plates which were incubated at 30° C. for 24 hours. Colonies were then enumerated.
(§3) Statistical analyses. ANOVA analyses on ranks for nonparametric data were performed for the bioassays described in this example.

[2] = test system: Fusarium oxysporum; assay: Fungicidal bioassay on nongerminated and germinating conidia of F. oxysporum
Method: as §1, §2, §3

[3] = test system: Candida albicans; assay: Effect on C. albicans viability (NCCLS broth dilution M-27A)
Method: 2. Candida albicans. The effect of CAY-1 on C. albicans viability was determined by the NCCLS methods (National Committee for Clinical Laboratory Standards, Wayne, Pa., 1997. Reference method for broth dilution antifungal susceptibility testing of yeasts. Approved standard M-27A, herein incorporated by reference).

[4] = test system: Aspergillus flavus; assay: Fungicidal bioassay on nongerminated and germinating conidia of A. flavus; conditions: for activity at 2 µM / activity at 3 µM / activity at 4 µM / activity at 5 µM / activity at 7.5 µM / activity at 10 µM / activity at 1 µM / activity at 2.5 µM: read-out: Percent of Mean Control
Method: as §1, §2, §3

CC1CCC2(OC1)OC1CC3C4CCC5CC(OC6OC(CO)C(OC7OC(CO)C(O)C(OC8OC(CO)C(O)C(OC9OC(CO)C(O)C(O)C9O)C8O)C7OC7OC(CO)C(O)C(O)C7O)C(O)C6O)C(O)CC5(C)C4CCC3(C)C1C2C (stereo not shown) [CAY-1]
Mean No. of Colonies ([1]; 2.0 μM): 25.1 | Mean No. of Colonies ([1]; 2.5 μM): 22.3 | Mean No. of Colonies ([1]; 3.0 μM): 23.8 | activity against conidia [2]: not active | IC50 [3]: 3.1 µM and 3.8 µg/mL | IC90 [3]: 6.2 µM and 7.7 µg/mL | minimal effective concentration ([3]; read-out: lowest effective level in vitro): ~3 µM | activity at 2 µM ([4]; Aspergillus flavus, 0.5 h, germinating, 1% PDB, 2.0 μM): 90.1% | activity at 3 µM ([4]; Aspergillus flavus, 0.5 h, germinating, 1% PDB, 3.0 μM): 74.4% | activity at 4 µM ([4]; Aspergillus flavus, 0.5 h, germinating, 1% PDB, 4.0 μM): 54.2% | activity at 5 µM ([4]; Aspergillus flavus, 0.5 h, germinating, 1% PDB, 5.0 μM): 34.9% | activity at 7.5 µM ([4]; Aspergillus flavus, 0.5 h, germinating, 1% PDB, 7.5 μM): 11% | activity at 10 µM ([4]; Aspergillus flavus, 0.5 h, germinating, 1% PDB, 10.0 μM): 8.4% | activity at 1 µM ([4]; Aspergillus flavus, 0.5 h, germinating, RPMI-1640, 1.0 μM): 132% | activity at 2.5 µM ([4]; Aspergillus flavus, 0.5 h, germinating, RPMI-1640, 2.5 μM): 145% | activity at 5 µM ([4]; Aspergillus flavus, 0.5 h, germinating, RPMI-1640, 5.0 μM): 62.9% | activity at 7.5 µM ([4]; Aspergillus flavus, 0.5 h, germinating, RPMI-1640, 7.5 μM): 14% | activity at 10 µM ([4]; Aspergillus flavus, 0.5 h, germinating, RPMI-1640, 10.0 μM): 9% | activity at 2 µM ([4]; Aspergillus flavus, 0.5 h, nongerminated, 1% PDB, 2.0 μM): 102% | activity at 3 µM ([4]; Aspergillus flavus, 0.5 h, nongerminated, 1% PDB, 3.0 μM): 102% | activity at 4 µM ([4]; Aspergillus flavus, 0.5 h, nongerminated, 1% PDB, 4.0 μM): 103% | activity at 5 µM ([4]; Aspergillus flavus, 0.5 h, nongerminated, 1% PDB, 5.0 μM): 104% | activity at 7.5 µM ([4]; Aspergillus flavus, 0.5 h, nongerminated, 1% PDB, 7.5 μM): 106% | activity at 10 µM ([4]; Aspergillus flavus, 0.5 h, nongerminated, 1% PDB, 10.0 μM): 108% | activity at 1 µM ([4]; Aspergillus flavus, 0.5 h, nongerminated, RPMI-1640, 1.0 μM): 88.6% | activity at 2.5 µM ([4]; Aspergillus flavus, 0.5 h, nongerminated, RPMI-1640, 2.5 μM): 92.2% | activity at 5 µM ([4]; Aspergillus flavus, 0.5 h, nongerminated, RPMI-1640, 5.0 μM): 91.7% | activity at 7.5 µM ([4]; Aspergillus flavus, 0.5 h, nongerminated, RPMI-1640, 7.5 μM): 90.7% | activity at 10 µM ([4]; Aspergillus flavus, 0.5 h, nongerminated, RPMI-1640, 10.0 μM): 99.2% | LD95 (concentration lethal to 95% of conidia) ([4]; Aspergillus flavus, 0.5 h, read-out: LD95): 12.5 µM and 15.5 µg/mL | minimal effective concentration ([4]; Aspergillus flavus, 0.5 h, read-out: concentration lethal to germinating conidia): 7.5 µM and 9.3 µg/mL | concentration lethal to germinating conidia ([4]; germinating conidia, RPMI-1640, p=0.0187): 7.5 μM and 9.3 μg/ml | Mean No. of Colonies ([4]; germinating, 1% PDB, 2.0 μM): 139.8 | Mean No. of Colonies ([4]; germinating, 1% PDB, 3.0 μM): 115.4 | Mean No. of Colonies ([4]; germinating, 1% PDB, 4.0 μM): 84.1 | Mean No. of Colonies ([4]; germinating, 1% PDB, 5.0 μM): 54.2 | Mean No. of Colonies ([4]; germinating, 1% PDB, 7.5 μM): 17.1 | Mean No. of Colonies ([4]; germinating, 1% PDB, 10.0 μM): 13.1 | Mean No. of Colonies ([4]; germinating, RPMI-1640, 1.0 μM): 52.6 | Mean No. of Colonies ([4]; germinating, RPMI-1640, 2.5 μM): 57.8 | Mean No. of Colonies ([4]; germinating, RPMI-1640, 5.0 μM): 25.1 | Mean No. of Colonies ([4]; germinating, RPMI-1640, 7.5 μM): 5.6 | Mean No. of Colonies ([4]; germinating, RPMI-1640, 10.0 μM): 3.6 | viability of nongerminated conidia ([4]; nongerminated conidia, either test medium): not affected | Mean No. of Colonies ([4]; nongerminated, 1% PDB, 2.0 μM): 54.4 | Mean No. of Colonies ([4]; nongerminated, 1% PDB, 3.0 μM): 54.8 | Mean No. of Colonies ([4]; nongerminated, 1% PDB, 4.0 μM): 55.2 | Mean No. of Colonies ([4]; nongerminated, 1% PDB, 5.0 μM): 55.7 | Mean No. of Colonies ([4]; nongerminated, 1% PDB, 7.5 μM): 56.9 | Mean No. of Colonies ([4]; nongerminated, 1% PDB, 10.0 μM): 58.0 | Mean No. of Colonies ([4]; nongerminated, RPMI-1640, 1.0 μM): 53.6 | Mean No. of Colonies ([4]; nongerminated, RPMI-1640, 2.5 μM): 55.8 | Mean No. of Colonies ([4]; nongerminated, RPMI-1640, 5.0 μM): 55.5 | Mean No. of Colonies ([4]; nongerminated, RPMI-1640, 7.5 μM): 54.9 | Mean No. of Colonies ([4]; nongerminated, RPMI-1640, 10.0 μM): 60.0
